Measured values from BindingDB's records for doi:10.1021/jm00016a010 (University of Innsbruck, 1995).

Test: binding affinity was evaluated by measuring the ability to displace [3H]DPDPE radioligand binding from delta opioid receptor in guinea pig brain membranes

SMILES	Ki [nM]
CCCCOc1c(O)ccc2c1C13CCN(CC4CC4)C(C2)[C@]1(OC)CCC(=O)C3 (stereo not given in full) [3-butoxy-17-cyclopropylmethyl-4-hydroxy-10-methoxy-17-azatetracyclo[7.5.3.01,10.02,7]heptadeca-2(7),3,5-trien-13-one]	42
COc1c(O)ccc2c1C13CCN(CC4CC4)C(C2)[C@]1(O)CCC(=O)C3 (stereo not given in full) [17-cyclopropylmethyl-4,10-dihydroxy-3-methoxy-17-azatetracyclo[7.5.3.01,10.02,7]heptadeca-2(7),3,5-trien-13-one]	334
COc1c(O)ccc2c1C13CCN(CC4CC4)C(C2)[C@]1(OC)CCC(=O)C3 (stereo not given in full) [17-cyclopropylmethyl-4-hydroxy-3,10-dimethoxy-17-azatetracyclo[7.5.3.01,10.02,7]heptadeca-2(7),3,5-trien-13-one]	14
CCO[C@@]12CCC(=O)CC13CCN(CC1CC1)C2Cc1ccc(O)c(OC)c13 (stereo not given in full) [17-cyclopropylmethyl-10-ethoxy-4-hydroxy-3-methoxy-17-azatetracyclo[7.5.3.01,10.02,7]heptadeca-2(7),3,5-trien-13-one]	21
COc1cccc2c1[C@]13CCN(CC4CC4)[C@H](C2)[C@]1(OC)CCC(=O)C3 [Naltrindole analogue]	61
